PMC4718634, “Murine GPRC6A Mediates Cellular Responses to L-Amino Acids, but Not Osteocalcin Variants” (PLoS ONE, 2016)
Entries after “also recorded” stand apart in the source; their conditions may differ.

Tests used:
MIN6 or βTC6 cells = experiment: Insulin release, MIN6 or βTC6 cells (summary table); type: cell-based, murine; settings: S1 Table
Protocol: MIN6 or βTC-6 cells were seeded in 24-well plates at 170,000 cells per well in DMEM (containing 4.5g/L glucose, 10 mM HEPES, 100 U/ml penicillin, 100 μg/ml streptomycin and 15% de-complemented FBS) and incubated at 37°C / 5% CO2 for 72 h. Cells were then washed with 500 μl PBS and incubated in 500 μl deprivation media (DMEM with zero glucose, 10 mM HEPES, 1 mM Na-pyruvate, 100 U/ml penicillin, 100 μg/ml streptomycin, 15% de-complemented FBS) for 2 h at 37°C. Media was aspirated and after washing with 500 μl PBS, cells were treated with 250 μl of Krebs buffer (250 mM NaCl, 5.9 mM KCl, 1.2 mM MgCl2, 1.3 mM CaCl2, 25 mM HEPES, 0.1% BSA (w/v), and 2 mM or 16.7 mM glucose; pH 7.4) in the presence or absence of test compound. After incubation for 2 h at 37°C, the assay was terminated by placing the plates on ice and supernatants were transferred to a 96-well plate in preparation for insulin ELISA (Alpco) following manufacturer’s instructions. The cell monolayer was washed twice with 500 μl of PBS and then lysed using 250 μl of 1 N NaOH prior to protein measurement by the method of Bradford (1976).

mice [1] = settings: [21], cited from earlier work
Source text: (§1) Additional interest in GPRC6A has emerged due to several studies reporting that it mediates the metabolic and endocrine effects of the de-carboxylated form of the osteoblast-derived peptide, osteocalcin (OCN). […] By examining cell signalling events downstream of recombinantly expressed mouse GPRC6A and phenotypic assays in cell lines endogenously expressing the Gprc6a transcript, we confirmed that GPRC6A is a receptor for basic L-amino acids, but were unable to detect any effect of OCN variants, irrespective of peptide species or source. GPRC6A has emerged in recent years as an interesting target due to its putative role in med ...

[2] = system: immortalised cell lines (e.g. pancreatic β-cells); settings: ref [12], cited from earlier work
Source text: as §1

immortalised cell lines = settings: blocked by siRNA targeting Gprc6a; ref [12], [22]; cited from earlier work
Source text: (§2) Additional interest in GPRC6A has emerged due to several studies reporting that it mediates the metabolic and endocrine effects of the de-carboxylated form of the osteoblast-derived peptide, osteocalcin (OCN).

mice [3] = settings: injected into the peritoneal cavity; WT vs Gprc6a KO mice; ref [12]; cited from earlier work
Source text: as §2

GPRC6A = settings: cited from earlier work
Source text: as §2

mouse pancreatic islets = experiment: Insulin release from mouse pancreatic islets; type: cell-based; settings: OCN 0.03–100 ng/ml; both glucose concentrations; 90 min; n = 2; S3 Fig B
Protocol: Islets were collagenase-isolated from mice (10 x C57Bl/6; 12–13 weeks; Charles River) and incubated overnight in RPMI (with 10% FBS (v/v), 10 mM HEPES, 100 U/ml penicillin, 100 μg/ml streptomycin, sodium pyruvate and 10 mM glucose) at 37°C in 5% CO2. Islets were seeded into a 96-well plate (4 / well) in Kreb’s buffer containing 2.8 mM glucose and washed twice with the same buffer. 200 μl test drugs were added in Kreb’s buffer with the required concentration of glucose and incubated at 37°C in 5% CO2 for 90 min. The plate was centrifuged for 10 s at 200 g, supernatant recovered and insulin levels detected as described above. This protocol was approved by the IDRS (Institut de Recherches Servier) Institutional Animal Care and Use Committee.
Concentration-response data were analysed using a three or four parameter logistic function (Motulsky & Christopoulos, 2004) to generate estimates of agonist potency (LogEC50). Data for all HEK293 assays represent the mean ± SEM of at least three independent experiments (except cell impedance, n = 2). For GLP-1 release, the data represent mean ± SEM of three to five independent experiments (except for OCN, wash; n = 2). For insulin release assays, data represent the mean ± SEM of three independent experiments (except for islet studies; n = 2). Insulin release data were normalised to the response to vehicle in either low or high [glucose]. Statistical analysis for GLP-1 release data were performed by one-way ANOVA, followed by Sidak’s multiple comparisons test (treating wash / no wash datasets separately). Statistical analyses for insulin release data were performed by two-way ANOVA (with [glucose] and drug treatment as group variables), followed by Sidak’s multiple comparisons test. Where only high [glucose] groups were evaluated, statistical analysis was by one-way ANOVA followed by Sidak’s multiple comparisons test.

βTC-6 cells = settings: GPRC6A-dependent; ref [12]; cited from earlier work
Source text: Given the range of OCN variants profiled, we propose that species and/or carboxylation status is unlikely to be a cause of the lack of activity in our assays. Other potential explanations are that the species of GPRC6A is critical or that HEK293 cells lack the necessary scaffolding and/or signalling proteins found in cells endogenously expressing GPRC6A. Unfortunately, human GPRC6A was not expressed at the cell surface in our cells, precluding a study of its pharmacology. However, we identified a range of immortalised murine entero-endocrine and pancreatic β-cell lines that express Gprc6a mRNA ...

[4] = system: un-induced FlpIn-TREx-HEK293-mGPRC6A cells; experiment: Label-free cell impedance, un-induced FlpIn-TREx-HEK293-mGPRC6A cells; type: cell-based; settings: Fig 4
Protocol: 2.5 x 10^7 FlpIn-TREx-HEK293-mGPRC6A cells were seeded in a T175 flask and incubated overnight at 37°C in 5% CO2. Cells were then transfected with 35 μg of plasmid DNA (GαqG66D) with Lipofectamine LTX according to manufacturer's instructions, then incubated for 24h at 37°C in 5% CO2. Prior to the experiment, a background reading for each E-plate 96 (Bio-Rad, CA, USA) was measured after addition of 100 μl DMEM + 10% FBS per well. Cells were recovered using Versene and seeded at a 10^5 cells/well density in 200 μl DMEM + 10% FBS (containing 1 μg/ml tetracycline where indicated). Cells were washed 2 x 2 h in HBSS buffer (pH 7.2) containing 20 mM HEPES, 1 mM CaCl2 and 0.1% BSA (w/v) in a total volume of 180 μl. Test compounds (20 μl at 10x final concentration) were added to the plate and cell impedance was monitored for 3 h. Cell index was normalised to the buffer response (minus the baseline response at zero time point).

| Compound | Insulin release (summary) (MIN6 or βTC6 cells) | β-cell proliferation, insulin release, insulin sensitivity, energy expenditure, testosterone synthesis (mice [1]; mice, ref [20]) | β-cell proliferation, insulin sensitivity, energy expenditure (mice [1]; ref [12], [20]) | insulin release ([2]; blocked by siRNA targeting Gprc6a, [22]) | insulin secretion in vitro and ex vivo ([2]; [20], [21]) | GLP-1 release (immortalised cell lines) | circulating insulin levels (mice [3]) | cAMP accumulation (GPRC6A; GPRC6A-expressing cell lines or mouse pancreatic islets, ref [8], [30]) | OCN concentration stimulating cAMP accumulation (GPRC6A; HEK293 transfected with GPRC6A, species not stated for receptor or peptide, ref [8]) | OCN concentration promoting ERK1/2 phosphorylation (GPRC6A; approx., HEK293 cells expressing GPRC6A, species not stated, ref [10], [12]) | insulin secretion, OCN (mouse pancreatic islets) | ERK1/2 phosphorylation (βTC-6 cells) | cell impedance (cell index) response [4] |
| --- | --- | --- | --- | --- | --- | --- | --- | --- | --- | --- | --- | --- | --- |
| OCN: osteoblast-derived peptide, osteocalcin; variant not specified at the place (YLYQWLGAPVPYPDPLEPRREVCELNPDCDELADHIGFQEAYRRFYGPV; UniProt P02818 52-100, looked up) | Insulin release – response to L-aa. No response to OCN | increase pancreatic β-cell proliferation, insulin release from pancreatic islets, insulin sensitivity and energy expenditure and testosterone synthesis in the gonads in mice | can increase pancreatic β-cell proliferation, insulin sensitivity and energy expenditure in vivo | OCN-mediated insulin and glucagon-like peptide (GLP)-1 release | promoting insulin secretion in vitro and ex vivo | OCN-mediated insulin and glucagon-like peptide (GLP)-1 release | increases circulating insulin levels in WT but not in Gprc6a KO mice | cAMP accumulation | 3 ng/mL | 40 to 80 ng/mL | no effect on insulin release; also recorded: failed to induce GSIS | engender ERK1/2 phosphorylation |  |
| NCCC[C@H](N)C(=O)O [L-ornithine] |  |  |  |  |  |  |  |  |  |  |  |  | only mGPRC6A-expressing cells responded to L-ornithine; also recorded: increases cellular impedance only in tetracycline-induced cells |
